# Experimental data published in PMC6155365, “A Phase 3 Study of Micafungin Versus Amphotericin B Deoxycholate in Infants With Invasive Candidiasis” (The Pediatric Infectious Disease Journal, 2018).
# Read-outs that look alike come from different tables or passages of the source. *1 amine or outer side, *2 acyl side, *3 side chain or, on linkers, in order; H or OH if unused. Where a SMILES comes first, the peptide text is derived from it. Bridges are numbered along the chain shown (N, C = ends). [ ]: non-standard residue; d: D form. The star is where a group is joined. hTyr(3S-OH,4S-OH,3'-OSO3H) = N[C@H](C(=O)O)[C@H](O)[C@@H](O)c1ccc(O)c(OS(=O)(=O)O)c1; Orn(4R-OH,5R-OH) = O=C([C@H](C[C@@H](O)[C@@H](O)N[*:3])N[*:1])[*:2]; Pro(3S-OH,4S-Me) = C[C@H]1CN[C@H](C(=O)O)[C@H]1O; X1 = CCCCCOc1ccc(-c2cc(-c3ccc(C(=O)*)cc3)no2)cc1; Gln(3R-OH) = NC(=O)C[C@@H](O)[C@H](N)C(=O)O; Hyp = O=C(O)[C@@H]1C[C@@H](O)CN1
# How the values were obtained:
# [1] = test system: Candida spp. (invasive candidiasis); assay: Phase 3 randomized double-blind study, efficacy in infants with proven invasive candidiasis (NCT00815516); format: in vivo; settings: for Early discontinuation of treatment: lack of efficacy / Infants alive at 1 week after last dose but not fungal free: MCA n = 20, AmB-D n = 10; for Positive clinical response: at end of study and 1 week after last dose, infants with signs at baseline (MCA 18, AmB-D 10); for Infants alive at 1 week after last dose but not fungal free: did not meet primary efficacy end point
# Method: This was a phase 3, randomized, double-blind, multicenter, parallel-group, noninferiority study (ClinicalTrials.gov identifier: […] The follow-up was performed to capture emergent and recurrent fungal infections, to obtain a final safety evaluation and to check for resolution of those IC episodes that had not resolved by the end of treatment. […] An independent Data Review Panel reviewed and confirmed the diagnosis of IC and evaluated the efficacy outcome for each subject. Drug safety was evaluated by an unblinded Data Safety and Monitoring Board. […] FFS was defined as an infant alive and fungal free with no requirement for continued treatment with alternative antifungal therapy. […] Responses were defined as follows: complete response (resolution of all attributable signs related to fungal infection); partial response (improvement in attributable signs related to the fungal infection); stabilization (minor improvement or no change in attributable signs related to the fungal infection and the infant continued on therapy without deterioration); progression (deterioration in attributable signs related to the fungal infection or death presumably related to fungal infection). […] Persistence was defined by continued isolation or histologic documentation from a normally sterile site. […] Following positive Candida cultures, end-organ dissemination was assessed using abdominal ultrasound and/or computed tomography scanning, echocardiogram, head imaging with ultrasound, magnetic resonance imaging or computed tomography scanning or ophthalmoscopy. An emergent fungal infection was defined as a non-Candida invasive fungal infection detected at any time during the study or any invasive fungal infection detected >96 hours postbaseline involving a Candida spp. other than those detected at baseline.
# [2] = in vivo
# C. glabrata [3] = assay: In vitro susceptibility MIC, CLSI M27-A3; format: cell-based, Candida glabrata; settings: Nakaseomyces glabratus; baseline isolate, persistent infection in AmB-D group
# Method: (§1) All fungal isolates were identified to the genus and species level using standard techniques. Briefly, each isolate was subcultured in CHROMagar Candida (Becton Dickinson and Company, Sparks, MD) and molecular identification by sequencing of the internal transcribed spacer region and/or 28S ribosomal subunit. In vitro susceptibility testing was performed on all fungal isolates collected during the study to calculate the minimum inhibitory concentrations (MICs) according to Clinical Laboratory Standards Institutes (CLSI) methodology (M27-A3) and European Committee on Antimicrobial Susceptibility Testing (EUCAST) methodology (EDef7.1).[24],[25]
# [4] = Clinical laboratory test findings, safety analysis set; format: in vivo, infants; settings: postbaseline increase from baseline
# C. albicans [5] = assay: In vitro susceptibility MIC, CLSI M27-A3; format: cell-based; settings: Candida albicans
# Method: as §1
# C. albicans [6] = assay: In vitro susceptibility MIC, EUCAST EDef7.1; format: cell-based, Candida albicans; settings: for MIC: Candida albicans
# Method: as §1
# C. glabrata [7] = assay: In vitro susceptibility MIC, EUCAST EDef7.1; format: cell-based, Candida glabrata; settings: Nakaseomyces glabratus; baseline isolate, persistent infection in AmB-D group
# Method: as §1
# [8] = Adverse events, safety analysis set; settings: for Early discontinuation of treatment: AEs / Electrolyte supplementation received: MCA n = 20, AmB-D n = 10; for Deaths: all deaths reported from the study; for Magnesium supplementation / Potassium supplementation: in vivo; for TEAE anemia / TEAE thrombocytopenia: irrespective of relatedness to study drug; for Drug-related TEAEs / Drug-related TEAEs leading to death / Drug-related serious TEAEs: possible or probable, as assessed by the investigator; for Serious TEAEs / TEAEs: safety analysis set; for TEAEs: MCA N = 20 (10 mg/kg/d), AmB-D N = 10 (1 mg/kg/d)
# invasive candidiasis = settings: patients <16 years with IC; MCA 2 mg/kg, liposomal amphotericin B 3 mg/kg; cited from earlier work
# Method: High rates of survival and successful treatment responses to MCA among patients <18 years of age with IC have been reported in prospective, observational studies.[32],[33] Success rates in pediatric studies are similar to the findings of our study in infants. For example, in a pediatric substudy from a randomized, double-blind study comparing MCA (2 mg/kg) with liposomal amphotericin B (3 mg/kg) in patients <16 years of age with IC, the investigators reported similar treatment success rates after MCA (defined as both a clinical and mycologic response at the end of therapy; 73% compared with 76 ...
# [9] = Population PK of MCA, linear 2-compartment model with body weight-based allometric scaling; format: in vivo; settings: Infants (this study), mean ± SD
# Method: Up to 3 PK blood samples (≤300 µL) were collected from infants who participated in the PK portion of the study. A population PK approach was used to define the PK profile of MCA. A linear 2-compartment population PK model with body weight–based allometric scaling was developed in neonatal and pediatric patient populations by amending a previous model[19],[26] and including data from the current study in addition to 2 previous phase 1 studies and 1 previous phase 3 study in infants.[20],[27],[28] Individual post hoc estimates of PK parameters, simulated area under the curve (AUC) at steady state and maximum plasma concentration at the end of 2-hour infusion at once-daily dose of MCA 10 mg/kg were derived based on the model.
# A population PK model was developed using data from this and 8 other studies (data on file at Astellas). A 2-compartment model with body weight–based allometric scaling and first-order elimination adequately described MCA PK data regardless of age. In this study, PK data were collected from 12 of 30 study participants (Table 2).
# [10] = adults, 100 mg/d (approximately 2 mg/kg); cited from earlier work
# Excerpt: AmB-D has been the standard of treatment for neonatal IC in the United States for many years,[7] but nephrotoxicity is a dose-limiting toxicity.[10] […] The use of fluconazole in infants may be limited because of the resistance of some Candida spp., its frequent use as prophylaxis in extremely premature infants, its poor activity against fungal biofilms and the high doses required to reach therapeutic concentrations.[9],[ ...
# C. parapsilosis [11] = assay: In vitro susceptibility MIC, EUCAST EDef7.1; format: cell-based, Candida parapsilosis; settings: baseline isolate
# Method: as §1
# C. parapsilosis [12] = assay: In vitro susceptibility MIC, CLSI M27-A3; format: cell-based, Candida parapsilosis
# Method: as §1
# [13] = premature and nonpremature infants <2 years, 9 clinical trials; cited from earlier work
# Excerpt: There was a slightly greater degree of nephrotoxicity at >25% baseline caused by AmB-D, although AmB-D-induced nephrotoxicity, defined as elevated serum creatinine, in the infant is usually reversible.[37] In understanding the relative tolerability of AmB-D in infants within the neonatal intensive care unit compared with older children, there are several hypotheses, including a greater nephronal reserve or the attention to appropriate hy ...
# [14] = 216 h, follow-up cultures on day 9, AmB-D group infant
# [15] = baseline isolate, persistent infection in AmB-D group
SMILES,Early discontinuation of treatment: lack of efficacy [1],Positive clinical response [1] [%],Infants alive at 1 week after last dose but not fungal free [1],Early discontinuation of treatment: AEs [8],Electrolyte supplementation received [8],TEAEs: Blood and lymphatic system disorders ([8]; MedDRA system organ class),TEAEs: General disorders and administration site conditions ([8]; MedDRA system organ class),TEAEs: Investigations ([8]; MedDRA system organ class),TEAEs: Metabolism and nutrition disorders ([8]; MedDRA system organ class),"TEAEs: Respiratory, thoracic and mediastinal disorders ([8]; MedDRA system organ class)",TEAEs: Skin and subcutaneous tissue disorders ([8]; MedDRA system organ class),TEAEs: Vascular disorders ([8]; MedDRA system organ class),Deaths [8],Magnesium supplementation [8],Potassium supplementation [8],TEAE anemia [8],TEAE thrombocytopenia [8],Drug-related TEAEs [8],Drug-related TEAEs leading to death [8],Drug-related serious TEAEs [8],further results
"C[C@@H]1[C@H](O)[C@@H](C)/C=C/C=C/C=C/C=C/C=C/C=C/C=C/[C@H](O[C@@H]2O[C@H](C)[C@@H](O)[C@H](N)[C@@H]2O)C[C@@H]2O[C@](O)(C[C@@H](O)C[C@@H](O)[C@H](O)CC[C@@H](O)C[C@@H](O)CC(=O)O[C@H]1C)C[C@H](O)[C@H]2C(=O)O [AmB-D, Amphotericin B deoxycholate]",1 (10%) n (%),70,2 (20%) n (%),3 (30%) n (%),5 (50%) n (%),6 (60) n (%),5 (50) n (%),3 (30) n (%),2 (20) n (%),3 (30) n (%),2 (20) n (%),3 (30) n (%),1 (10) n (%),2 (20%) n (%),3 (30%) n (%),3 (30%) n (%),3 (30%) n (%),5 (50) n (%),0 n (%),1 (10) n (%),"Clinical response: Partial ([1]; at 1 week after last dose of study drug, infants with signs at baseline): 0 n/N (%); Clinical response: Partial ([1]; end of study (30 days after last dose)): 0 n/N (%); Emergent fungal infections through end of study ([1]; full analysis set): 0 n/N (%); TEAEs: Infections and infestations [2]: 3 (30) n (%); MIC (C. glabrata [3]): 1 µg/mL; Serum creatinine increase >100% [4]: 0 n/N (%); MIC (C. albicans [5]; [14]): 1 µg/mL; MIC (C. albicans [5]; [15]): 1 µg/mL; MIC (C. albicans [6]; [14]): 0.25 µg/mL; MIC (C. albicans [6]; [15]): 0.5 µg/mL; MIC, EUCAST (C. albicans [6]; follow-up cultures on day 9, AmB-D group infant): 0.5 µg/mL; MIC (C. glabrata [7]): 0.5 µg/mL; Serious TEAEs [8]: 7 (70) n (%); TEAEs [8]: 9 (90) n (%)"
"CCCCCOc1ccc(-c2cc(-c3ccc(C(=O)N[C@H]4C[C@@H](O)[C@@H](O)NC(=O)[C@@H]5[C@@H](O)[C@@H](C)CN5C(=O)[C@H]([C@H](O)CC(N)=O)NC(=O)[C@H]([C@H](O)[C@@H](O)c5ccc(O)c(OS(=O)(=O)O)c5)NC(=O)[C@@H]5C[C@@H](O)CN5C(=O)[C@H]([C@@H](C)O)NC4=O)cc3)no2)cc1 [MCA, micafungin] (X1-[Orn(4R-OH,5R-OH)]T[Hyp][hTyr(3S-OH,4S-OH,3'-OSO3H)][Gln(3R-OH)][Pro(3S-OH,4S-Me)]; lactam 1-C)",1 (5%) n (%),61,5 (25%) n (%),3 (15%) n (%),6 (30%) n (%),10 (50) n (%),3 (15) n (%),5 (25) n (%),1 (5) n (%),0 n (%),1 (5) n (%),3 (15) n (%),3 (15) n (%),3 (15%) n (%),2 (10%) n (%),9 (45%) n (%),2 (10%) n (%),11 (55) n (%),0 n (%),6 (30) n (%),"Treatment success rate (clinical and mycologic response at end of therapy) (invasive candidiasis): 73%; CL ([9]; N = 12, MCA 10 mg/kg iv, individual post hoc estimates): 0.068 ± 0.039 (0.022–0.147) L/h; CL ([9]; N = 12, MCA 10 mg/kg iv): 0.487 ± 0.200 (0.225–0.876) mL/min/kg; Vss ([9]; N = 12, MCA 10 mg/kg iv): 0.480 ± 0.159 (0.306–0.799) L/kg; t1/2 ([9]; N = 12, MCA 10 mg/kg iv): 12.25 ± 2.87 (7.51–16.92) h; AUCss ([9]; N = 12, simulated at 10 mg/kg once daily, 2-hour infusion): 399.32 ± 163.88 (190.33–742.30) μg·h/mL; C2h (steady-state plasma concentration at end of 2-hour infusion) ([9]; N = 12, simulated at 10 mg/kg, 2-hour infusion): 31.06 ± 10.53 (17.01–49.69) μg/mL; Mean exposure (AUC) [10]: 100000 ng·h/mL; MCA MIC, EUCAST (C. parapsilosis [11]; persistent infection 1 of 2 in MCA group): 1 µg/mL; MCA MIC, EUCAST (C. parapsilosis [11]; the other persistent infection in MCA group): 0.5 µg/mL; MCA MIC, CLSI (C. parapsilosis [12]; baseline isolate, persistent infection 1 of 2 in MCA group): 1 µg/mL; MCA MIC, CLSI (C. parapsilosis [12]; baseline isolate, the other persistent infection in MCA group): 1 µg/mL; MCA MIC, CLSI (C. parapsilosis [12]; follow-up isolates collected on day 19, both MCA-treated infants): 1 µg/mL; TEAEs: Infections and infestations ([8]; MedDRA system organ class): 11 (55) n (%); SAE anemia ([8]; most common SAE in the MCA group): 4 (20%) n (%); Serious TEAEs [8]: 12 (60) n (%); TEAEs [8]: 18 (90) n (%); Treatment-related TEAEs, patients [13]: 23%"
